The subject of data set [1] is normal human primary dermal fibroblasts. The data set can be described thus: MTS cell viability assay, normal fibroblasts. The data set is classed as cell-based. To be noted: 48 h of exposure. In general terms: Tetrazolium dyes change colour on reduction, which living cells bring about.
Method: (§1) The in vitro cytotoxic potential of Cu(II) complexes in tumor and healthy cells was assessed using the MTS assay, a colorimetric method that allows the quantification of viable cells in culture.[46]
Cell culture and maintenance
(§2) The cancer cell lines HCT116 (colorectal carcinoma) and A2780 (ovarian carcinoma) were obtained
(§3) from the American Type Culture Collection (ATCC®, Manassas, VA, USA), as well as the normal
(§4) Apart from the A2780 cell line, which was cultured in Roswell Park Memorial Institute (RPMI)
(§5) medium, all cells were cultured in Dulbecco’s modified Eagle medium (DMEM). Both media were
(§6) supplemented with 10% (v/v) fetal bovine serum (FBS) and 1% (v/v) of a Pen/Strep
(§7) (Penicillin/Streptomycin) solution. To maintain the resistant phenotype of the HCT116DoxR cell line,
(§8) the medium was additionally supplemented with 3.6 μM Dox4. All media and supplements were
(§9) purchased from Thermo Fischer Scientific (Waltham, MA, USA).
(§10) Cells were maintained in 25 cm2 T-flasks (T25) in a humidified atmosphere at 37 °C and 5% (v/v) CO
(§11) (SANYO CO2 Incubator, Electric Biomedical Co., Osaka, Japan).
(§12) The effect of Cu(II) complexes on cell viability was studied in HCT116, HCT116DoxR, and A2780
(§13) cancer cell lines and in normal human primary fibroblasts. Cells were seeded in a density of 0.75×105
(§14) cells/mL into 96-well plates and incubated in a humidified atmosphere at 37 °C and 5% (v/v) CO2 for
(§15) 24 h. After incubation, complexes were weighed, immediately solubilized in 100% (v/v) DMSO and
(§16) diluted for the final concentration with cell culture medium. The medium in each well was replaced by
(§17) a solution of fresh medium containing each Cu(II) complex (concentrations ranging from 0.01 μM to
(§18) Following a second incubation period of 48 h in the same conditions, the supernatant of each well was
(§19) replaced by a solution containing MTS reagent (3-(4,5-dimethylthiazol-2-yl)-5-(3-
(§20) Non-Radioactive Cell Proliferation Assay Kit (Promega, Madison, WI, EUA) for a 30 minutes
(§21) incubation. The percentage of viable cells was indirectly determined by the spectrophotometric
(§22) quantification at 490 nm in a microplate reader, Tecan Infinite M200 (Tecan, Männedorf, Switzerland)
(§23) of formazan production, resultant from the reduction of the MTS reagent by mitochondrial
The test system of data set [2] is HCT116DoxR (Dox-resistant colorectal carcinoma cell line). The data set is described as follows: MTS cell viability assay, 2D culture, HCT116DoxR. Conditions: read-out: IC50 (μM) HCT116DoxR, 48 h of exposure.
Method: as §1
In this regard, cell viability was performed for each of the ligands on HCT116DoxR and fibroblasts.
Cell culture and maintenance
as §2, §3, §4, §5, §6, §7, §8, §9, §10, §11, §12, §13, §14, §15, §16, §17
(§24) as negative and positive controls, respectively.
as §18, §19
(§25) carboxymethoxyphenyl)-2-(4-sulfophenyl)-2H-tetrazolium) provided by the CellTiter 96® AQueous
as §20, §21, §22, §23
(§26) dehydrogenases. Since these enzymes are only active in viable cells, the absorbance value measured is
(§27) directly proportional to the percentage of viable cells in culture5.
A further data set has as its system pUC18 plasmid DNA. The data set can be described thus: pDNA cleavage in vitro (agarose gel electrophoresis). To be noted: for effect of control reagent alone on pUC18: TBHP 20 μM, NaN3 50 μM. The data set is classed as biochemical, E. coli.
Data set [3] concerns A2780 (ovarian carcinoma cell line). The data set is described as follows: MTS cell viability assay, 2D culture, A2780. The data set is classed as cell-based, human. To be noted: 48 h of exposure.
Method: as §1
Cell culture and maintenance
as §2, §3, §4, §5, §6, §7, §8, §9, §10, §11, §12, §13, §14, §15, §16, §17, §24, §18, §19, §25, §20, §21, §22, §23, §26, §27
(§28) By analysing the cell viability as a function of log10(concentration) using Prism 8 (GraphPad
(§29) in cell viability) of each complex in the respective cell line at 48 h. The selective index (SI) for each
(§30) complex was also determined by dividing the IC50 of human fibroblasts by the respective IC50 in each
(§31) cancer cell line (allowing us to understand how much active a complex is in tumor versus normal cell).
Data set [4] deals with HCT116 (colorectal carcinoma cell line). The data set is described as follows: MTS cell viability assay, 2D culture, HCT116. The data set is classed as cell-based, human. Conditions: 48 h of exposure.
Method: as §1
Cell culture and maintenance
as §2, §3, §4, §5, §6, §7, §8, §9, §10, §11, §12, §13, §14, §15, §16, §17, §24, §18, §19, §25, §20, §21, §22, §23, §26, §27, §28, §29, §30, §31
The test system of data set [5] is HCT116DoxR cells. The data set is described as follows: Cell cycle progression (PI, flow cytometry). (In general: A flow cytometer gives signals particle by particle.)
From the text: Therefore, we have assessed the cytostatic potential of complexes 2, 3, 5, and 7, and their ability to interfere with the progression of the cell cycle using the fluorescent marker PI. Since this marker can intercalate with DNA, the measurement of the fluorescence emitted by flow cytometry makes it possible to assess the DNA content at each stage of the cell cycle (G0/G1, S, and G2/M).[67] To ensure that all the cells were in the same phase before their exposure to the complexes, a double block was carried out with thymidine, a DNA synthesis inhibitor.[67]
HCT116DoxR cell line was seeded in 6-well plates in a density of 1×10^5 cells/mL and incubated for
24 h. Afterwards, the culture medium was replaced by medium with IC50 concentrations of different
HCT116DoxR cell line was seeded in 6-well plates in a density of 1×10^5 cells/mL, incubated for 8 h in
a humidified atmosphere at 37 °C and 5% (v/v) CO2, and later synchronized in early S-phase with a 2
mM thymidine solution (Merck, Germany) for a 16 h period. Later, medium with thymidine was
replaced by fresh media and, after 8 h a second block with thymidine was performed in the same
concentrations of Cu(II) complexes. 0.1% (v/v) DMSO was used as the vehicle control while 5 μM
After treatment, cells were incubated for 9, 12,
Data set [6] concerns HCT116DoxR cells. The data set is described as follows: Annexin V-FITC/PI apoptosis assay by flow cytometry. To be noted: 48 h.
Method: To evaluate the cell death mechanism involved in the cytotoxic effect of the selected complexes, a double-staining with Annexin V-FITC and PI was performed. […] The use of Annexin V conjugated with the fluorophore FITC allows the quantification of this interaction and subsequent identification of cells in apoptosis by flow cytometry. Furthermore, PI is a fluorophore that can intercalate with DNA and that can only enter the cell when the membrane is either compromised or ruptured, making it possible to identify cells undergoing late apoptosis and necrosis. Therefore, the double staining makes it possible to distinguish between viable cells (FITC^–; IP^–), those undergoing initial apoptosis (FITC^+; IP^–), those undergoing late apoptosis (FITC^+; IP^+), and those undergoing necrosis (FITC^–; IP^+).[55],[58]
Evaluation of apoptosis induction in HCT116DoxR cell line by flow cytometry The induction of apoptosis in HCT116DoxR cell line was evaluated by flow cytometry, using the
Annexin V-FITC Apoptosis Detection Kit (Thermo Fisher Scientific, Waltham, MA, USA). Cells
were seeded in 6-well plates at a cell density of 1×10^5 cells/mL and incubated for 24 h. Afterwards,
culture medium was replaced by medium with different Cu(II) complexes at their IC50 concentrations.
After 48 h of incubation, cells were washed with PBS 1x, detached from each well with TrypLETM
Express and washed again with PBS 1x. Cells were then resuspended in 1x annexin-binding buffer and
incubated at rt for 15 min with Annexin V-FITC and 100 μg/mL PI.
All samples were analysed by an Attune® Acoustic Focusing Flow Cytometer (Thermo Fischer
Scientific, Waltham, MA, USA) and the results were processed with Attune® Cytometric software
For the next data set, the system named is EB–ct-DNA adduct. The data set can be described thus: Ethidium bromide displacement fluorescence assay. It is filed as binding, calf. To be noted: PBS.
A further data set has as its system BAX and BCL-2. The data set is described as follows: BAX and BCL-2 protein expression by Western Blot. The data set is classed as cell-based, human. Conditions: HCT116DoxR, 48 h, IC50; normalized to β-actin. On the technique in general: Immunoblotting shows a protein as a band on a membrane.
For the next data set, the system named is chicken embryos. The data set can be described thus: Ex-ovo chick chorioallantoic membrane (CAM) assay. It is filed as in vivo. To be noted: IC50, vs DMSO control.
The next data set deals with HCT116DoxR spheroids. The data set is described as follows: MTS cell viability assay in 3D HCT116DoxR spheroids. It is filed as cell-based, human. To be noted: 6-day-old spheroids, 48 h of exposure.
The mark [7] stands for this setting: complexes at IC50, Dox 6 μM, cisplatin 5 μM.

Broadly, the IC50 is the midpoint of a concentration-inhibition curve. As to `COc1ccc2c(OC)ccc(-c3cc(-c4ccccn4)nc(-c4ccccn4)c3)c2c1` [L4], the IC50 in data set [1] is 13.1 ± 3.18 µM; in [2], 0.4 ± 0.25 µM.
For the compound `CC(C)(C)OO` [TBHP, Tert-Butyl hydroperoxide, reference compound], in the data set on pUC18 plasmid DNA (24 h), the “effect of control reagent alone on pUC18” value was “unable to induce pUC18 cleavage”.
On to `c1ccc(-c2cc(-c3ccco3)cc(-c3ccccn3)n2)nc1` [L5], for which the IC50 in data set [1] is greater than 50 µM; in data set [2], 0.6 ± 0.02 µM.
Turning to `CCn1c2ccccc2c2cc(-c3cc(-c4ccccn4)nc(-c4ccccn4)c3)ccc21` [L8], the IC50 was roughly 10 µM in data set [1] and 0.4 ± 0.04 µM in data set [2].
`COc1ccc2c(OC)ccc(-c3cc(-c4ccccn4)nc(-c4ccccn4)c3)c2c1.COc1ccc2c(OC)ccc(-c3cc(-c4ccccn4)nc(-c4ccccn4)c3)c2c1.F[P-](F)(F)(F)(F)F.F[P-](F)(F)(F)(F)F.[Cl][Cu].[Cl][Cu]` [complex 4, [Cu2Cl2(4′-(4,7-Dimethoxy-1-naphthyl)-terpy)2](PF6)2]: the IC50 in data set [3] stood at 0.49 ± 0.1 µM; in data set [4], 0.15 ± 0.04 µM; in data set [1] it was 2.64 ± 0.1 µM; in [2] it was 0.16 ± 0.01 µM.
For the compound `F[P-](F)(F)(F)(F)F.F[P-](F)(F)(F)(F)F.[Cl][Cu].[Cl][Cu].c1ccc(-c2cc(-c3cccc4ccccc34)cc(-c3ccccn3)n2)nc1.c1ccc(-c2cc(-c3cccc4ccccc34)cc(-c3ccccn3)n2)nc1` [complex 1, [Cu2Cl2(4′-(1-Naphthyl)-terpy)2](PF6)2], the IC50 was 0.8 ± 0.05 µM in data set [3], 0.16 ± 0.01 µM in [4], 3.04 ± 0.02 µM in [1] and 0.12 ± 0.01 µM in data set [2].
Turning to `F[P-](F)(F)(F)(F)F.F[P-](F)(F)(F)(F)F.[Cl][Cu].[Cl][Cu].c1ccc(-c2cc(-c3ccccn3)nc(-c3ccccn3)c2)nc1.c1ccc(-c2cc(-c3ccccn3)nc(-c3ccccn3)c2)nc1` [complex 7, [Cu2Cl2(4′-(2-Pyridynyl)-terpy)2](PF6)2], the “cell cycle progression after 12 h” value with HCT116DoxR cells [5] (12 h, IC50, thymidine double block) was “delays cell cycle progression in the G2/M phase”. In addition, in the data set with HCT116DoxR cells [5] (18 h, IC50, thymidine double block), the “cell cycle progression after 18 h” value is listed as “delay in cycle progression in the G0/G1 phase”. The “cell cycle progression after 24 h” value with HCT116DoxR cells [5] (24 h, complexes at IC50, cisplatin 5 μM) was “delay the cycle in the G2/M phase”. In the data set with pUC18 plasmid DNA (100 ng pUC18, 24 h), the “concentration at which the interaction with pDNA reaches saturation” value was 100 μM. In the data set with pUC18 plasmid DNA (100 ng pUC18, 24 h, 5–100 μM complex), the pDNA cleavage mode entry is “single and double strands”. In addition, the “effect of NaN3 (singlet oxygen scavenger) on pDNA cleavage by the complex” value in the data set on pUC18 plasmid DNA (24 h, 50 μM complex + 50 μM NaN3) is listed as “almost completely reversed”. Besides, in the data set with HCT116DoxR cells [6] (setting [7]), the “cells (%) early apoptosis” value came to 37.4 ± 7.4%, the “cells (%) late apoptosis” value is reported as 9.0 ± 2.6%, the “cells (%) necrosis” value is on record as 1.1 ± 0.5% and the “cells (%) viable” value is on record as 52.5 ± 6.7%. In addition, the “percentage of apoptosis (early + late)” value in the data set with HCT116DoxR cells [6] (setting [7]) is roughly 46%. Moreover, in the data set on HCT116DoxR cells [6] (complexes at IC50, cisplatin 5 μM), the “fold increase in apoptotic cells, normalized to DMSO” value came out at 5 fold. In addition, the IC50 in data set [3] was 1.13 ± 0.2 µM. In addition, the “apparent binding constant (Kapp)” value in the data set with EB–ct-DNA adduct (EB displacement, KEB = 1 × 10^7 M^–1) is 1.16 × 10^6 M^–1. Besides, the “Stern–Volmer quenching constant KSV” value with EB–ct-DNA adduct (EB–ct-DNA, 0–40 μM complex) was 2320 M⁻¹. Moreover, in the data set on BAX and BCL-2, the “expression of BAX compared to the DMSO control” value was “decreases” and the “expression of BCL-2 compared to the DMSO control” value is “increases”. Further, the “formation of new blood vessels after 24 h” value with chicken embryos (24 h) is “no pro- or antiangiogenic effect”. The “formation of new blood vessels after 48 h” value with chicken embryos (48 h) is recorded as “antiangiogenic effect”. In data set [4], this compound had an IC50 of 0.23 ± 0.01 µM. The compound also gave an IC50 in the data set with HCT116DoxR spheroids of 30.48 ± 0.19 µM. The compound further returned an IC50 in [1] of 16.08 ± 0.05 µM. Moreover, the IC50 in data set [2] came out at 0.19 ± 0.01 µM.
With `c1ccc(-c2cc(-c3ccccn3)nc(-c3ccccn3)c2)nc1` [L7], the results for the IC50 in [1] and in data set [2] were roughly 50 µM and 0.5 ± 0.06 µM, respectively.
With `c1ccc(-c2cc(-c3cccc4ccccc34)cc(-c3ccccn3)n2)nc1` [L1], the IC50 is greater than 50 µM in data set [1] and roughly 0.2 µM in data set [2].
As to `[N-]=[N+]=[N-].[Na+]` [NaN3, sodium azide, reference compound], the “effect of control reagent alone on pUC18” value in the data set with pUC18 plasmid DNA (24 h) is “no effect”.
Regarding `CCn1c2ccccc2c2cc(-c3cc(-c4ccccn4)nc(-c4ccccn4)c3)ccc21.CCn1c2ccccc2c2cc(-c3cc(-c4ccccn4)nc(-c4ccccn4)c3)ccc21.F[P-](F)(F)(F)(F)F.F[P-](F)(F)(F)(F)F.[Cl][Cu].[Cl][Cu]` [complex 8, [Cu2Cl2(4′-(N-Ethyl-9H-carbazol-3-yl)-terpy)2](PF6)2], the IC50 in data set [3] came out at 0.37 ± 0.06 µM; in [4], 0.1 ± 0.03 µM; in data set [1], 7.36 ± 0.04 µM; in [2] it was 0.19 ± 0.06 µM.
Take `c1ccc(-c2cc(-c3ccnc4ccccc34)cc(-c3ccccn3)n2)nc1` [L2]: the IC50 is greater than 50 µM in data set [1] and 0.4 ± 0.02 µM in data set [2].
